Data from patent publication US20230174975A1 (priority 2020, published 2023).
Counter-ions that a name gives are not always drawn. Like-named read-outs stand apart in the source and are kept apart here.

Key:
229E [1] = assay type: cell-based, human 229E coronavirus
229E [2] = assay type: cell-based, human 229E coronavirus; remark: listed apart in the source
229E virus = test: organism not typed; assay type: cell-based, human 229E coronavirus; details: for combination effect with Camostat mesylate (in words) / combination effect with IFNα 4b (in words) / inhibition of virus replication: PAC-MAN with the guide; for inhibition of virus replication: no drug, 24 hpi, vs NT6
SARS-CoV-2 = assay type: cell-based; details: supernatant test, SARS-CoV-2 MOI=0.01
[3] = system: transmembrane protease, serine 2 (TMPRSS2); test: Knockdown of endogenous gene in A549 cells by Cas13d and crRNAs (qPCR); assay type: cell-based, human; details: 3 days
[4] = system: methylenetetrahydrofolate dehydrogenase 1 (MTHFD1); test: as above; assay type: cell-based, human; details: 3 days
[5] = single agent alone, vs control (NT)

N20: crRNA tested against live SARS-CoV-2 in Cas13d VeroE6 cells; best crRNA of that screen (guide ACUUCAUCAAUUAUGUCAGUUU; chemistry not given here)
inhibition of virus replication (229E [1]; guide screening, MRC-5 cells, viral titer in supernatant by RT-qPCR (FIG. 11)): 95% | protection of cells from death by 229E infection (in words) (229E [2]; 229E MOI 0.01, up to 5 day infection): protected the cells from death | protection of cells from death at different MOIs (in words) (229E [2]; 229E MOI up to 1.0 (FIG. 21A)): protected the cells from death | combination effect with Camostat mesylate (in words) (229E virus): promising synergistic effect | combination effect with IFNα 4b (in words) (229E virus): additive effect | fold decrease of virus titer (229E virus; PAC-MAN with the guide combined with IFNα 4b, vs NT): 10.1 fold | inhibition of virus replication (229E virus): 84% | fold decrease of virus titer (229E virus; [5]): 6.2 fold | repression efficiency (viral RNA load) (SARS-CoV-2): 96%

crN1: crRNA (guide) targeting N gene of human 229E coronavirus; not N1 of Table 9 (guide AGCCCAUUUGACUGUAGCCAUC; chemistry not given here)
inhibition of virus replication (229E [1]): about 80% | cells alive (229E [2]): more than 90%

SEQ ID NO: 13605: crRNA targeting endogenous gene TMPRSS2 (guide TACAGCGTAAAGAAACCACTGCT; chemistry not fully specified)
knockdown of TMPRSS2 mRNA (in words) [3]: efficiently knocked down

SEQ ID NO: 13606: crRNA targeting endogenous gene MTHFD1 (guide CAATATCATAAAAACAGGGCCGG; chemistry not fully specified)
knockdown of MTHFD1 mRNA (in words) [4]: efficiently knocked down

R19: crRNA targeting SARS-CoV-2 RdRP sequence (Table 8); not 229E crR19 (guide CACCATCGTAACAATCAAAGTA; chemistry not given here)
combination effect with Camostat mesylate (in words) (229E virus): promising synergistic effect | combination effect with IFNα 4b (in words) (229E virus): minus effect | inhibition of virus replication (229E virus): 50%

crR19: crRNA (guide) targeting RdRP of human 229E coronavirus; not R19 of Table 9 (guide CCAGCAGAAAUAAUACGGCUAG; chemistry not given here)
inhibition of virus replication (229E [1]): about 80%

CN(C)C(=O)COC(=O)Cc1ccc(OC(=O)c2ccc(NC(=N)N)cc2)cc1 [Camostat mesylate, reference compound]
EC50 (229E virus): ~500 µM | combination effect of the drug with PAC-MAN (in words) (229E virus): synergistic effects | fold decrease of virus titer (229E virus; [5]): 2.4 fold | cytotoxicity: no obvious cytotoxicity

crR8: crRNA (guide) targeting RdRP of human 229E coronavirus (guide AAUCUUUAAUUGCAGCAUCACC; chemistry not given here)
inhibition of virus replication (229E [1]): about 80%
